One may read the LD50 as the dose at which mortality reaches 50%. Lower therefore signals greater toxicity.

13 compounds from patent publication US4657911A, “3-amino quinuclidine derivatives and the application thereof as accelerators of gastro-intestinal motor function” (Delalande S.A., priority 1982, dated 1987) can be followed below.

Structures can show the parent of a compound that is named as a salt. Where two headings read alike, the source gives them in different places.

In one series the test system is total transit. The series is described as follows: total transit test in rats. The series is classed as in vivo. The following applies: Rattus norvegicus, po, read-out: % animals having completely evacuated the balls after 24 hours; for responders at 10 mg/kg: dose 10 mg/kg p.o. On the procedure:
by the total transit test in rats, carried out according to the following method: The compounds of the invention were administered orally simultaneously with 20 steel balls to wakeful rats having eaten nothing for 20 hours. The fast was broken immediately after the administration and the compounds of the invention were administered a second time at the same dose after a period of 7 hours. The total transit was evaluated 24 hours after the first administration of the compounds to be tested by the percentage of the animals having evacuated all the balls in the faeces, the balls being counted by radiological examination.

Series [1] is described as follows: acute toxicity in mice, method of MILLER and TAINTER. The following applies: mouse, in vivo, ip. How it is done:
In addition, the acute toxicity in mice was evaluated according to the method of MILLER and TAINTER described in Proc. Soc. Exp. Biol. Med. 57 261 (1944).

Another series relates to gastric evacuation. Description: gastric evacuation test on rats. The series is classed as in vivo. As to conditions: rats fasted 20 hours, 20 steel balls. On the procedure: by the gastric evacuation test on rats, carried out with the following method: The compounds of the invention are administered orally together with 20 steel balls to wakeful rats having eaten nothing for 20 hours. The action on the gastric evacuation of the tested compounds was evaluated 90 minutes after administration thereof by the percentage of animals whose stomach contained no balls, these balls being counted by radiological examination.

[2] abbreviates: rats, second administration at same dose after 7 hours, 24 hours.
Setting [3] is: rats, dose 1 mg/kg p.o., second administration at same dose after 7 hours, 24 hours.

Turning to `COc1nc(N)ncc1C(=O)NC1CN2CCC1CC2` (stereo not shown) [Code number 1], the responders at 10 mg/kg in the series with total transit (setting [2]) stood at 50%. The compound further registered an LD50 in series [1] (Table III) of 300 mg/kg.

For `COc1cc(N)c(Cl)cc1C(=S)N(C)C1CN2CCC1CC2` (stereo not shown) [compound 25], the responders at 1 mg/kg in the series on total transit (setting [3]) was determined as 44%. The compound also displayed an LD50 in series [1] (Table III) of 80 mg/kg.

With `COc1cc(N)c(Cl)cc1C(=S)NC1CN2CCC1CC2` (stereo not shown) [compound 22], the responders at 1 mg/kg in the series on total transit (setting [3]) amounted to 63%. In series [1] (Table III), this compound displayed an LD50 of 300 mg/kg.

With `O=C(NC1CN2CCC1CC2)c1cccc(Cl)c1` (stereo not shown) [compound 20], in the series with total transit (setting [3]), the responders at 1 mg/kg amounted to 50%. In series [1] (Table III), the LD50 was found to be 145 mg/kg.

Consider `O=C(NC1CN2CCC1CC2)c1ccccc1F` (stereo not shown) [compound 6], for which the responders at 10 mg/kg with total transit (setting [2]) amounted to 55%. Moreover, the LD50 in series [1] (Table III) was 150 mg/kg.

Turning to `COc1ccccc1C(=O)NC1CN2CCC1CC2` (stereo not shown) [compound 7], the responders at 10 mg/kg in the series with total transit (setting [2]) stood at 50%. The compound also showed an LD50 in series [1] (Table III) of 150 mg/kg.

In the case of `COc1cc(N)c(Cl)cc1C(=O)NC1CN2CCC1CC2` (stereo not shown) [Code number 2, N-(3-quinuclidinyl)4-amino 5-chloro 2-methoxy benzamide, maleate], the “% animals whose stomach contained no ball after 90 minutes” value in the series on gastric evacuation (dose 5 mg/kg p.o.) is 75%; in the series with gastric evacuation (dose 10 mg/kg p.o.), 100%. Besides, the responders at 1 mg/kg in the series with total transit (setting [3]) turned out to be 64%. In series [1] (Table II), this compound gave an LD50 of 105 mg/kg.

Turning to `O=C(NC1CN2CCC1CC2)c1cccc(F)c1` (stereo not shown) [Code number 5, N-(3-quinuclidinyl)3-fluoro benzamide, oxalate], the “% animals whose stomach contained no ball after 90 minutes” value in the series with gastric evacuation (dose 2.5 mg/kg p.o.) is reported as 100%. In series [1] (Table II), this compound came in with an LD50 of 140 mg/kg.

On to `COc1ccc(F)cc1C(=O)NC1CN2CCC1CC2` (stereo not shown) [compound 17], for which, in the series on total transit (setting [3]), the responders at 1 mg/kg is 57%. The same compound displayed an LD50 in series [1] (Table III) of 140 mg/kg.

Regarding `COc1cc(N)c(Cl)cc1C(=O)N(C)C1CN2CCC1CC2` (stereo not shown) [compound 24], in the series on total transit (setting [3]), the responders at 1 mg/kg amounted to 38%. Moreover, the LD50 in series [1] (Table III) came out at 70 mg/kg.

For the compound `COc1cccc(C(=O)NC2CN3CCC2CC3)c1` (stereo not shown) [Code number 3], the “% animals whose stomach contained no ball after 90 minutes” value in the series with gastric evacuation (dose 2.5 mg/kg p.o.) is 100%. In addition, the LD50 in series [1] (Table II) turned out to be 110 mg/kg.

Regarding `COc1ccc(Br)cc1C(=O)NC1CN2CCC1CC2` (stereo not shown) [compound 18], the responders at 1 mg/kg in the series on total transit (24 h) was determined as 38%. The LD50 in series [1] (Table III) turned out to be 160 mg/kg.

`COc1cc(NC(C)=O)c(Cl)cc1C(=O)N(C)C1CN2CCC1CC2` (stereo not shown) [compound 23]: the responders at 1 mg/kg with total transit (setting [3]) is 38%. This compound also displayed an LD50 in series [1] (Table III) of 50 mg/kg.
